Reference: ChEMBL document CHEMBL4699662, “Identification and structure-activity relationship studies of small molecule inhibitors of the human cathepsin D” (Bioorg Med Chem, 2021)

Assays:
[1] = in vitro; settings: human, liver microsomes
[2] = in vitro; settings: mouse, liver microsomes

Row | SMILES | microsomal CLint at 0.5 h, 1 µM [1] | microsomal CLint at 0.5 h, 1 µM [2]
1 | CNS(=O)(=O)c1ccc(C)c(NC(=O)[C@H](NC(=N)NC(=O)Cc2ccc(OC)c(OC)c2)C(C)C)c1 | 179 µL/min/mg | 104 µL/min/mg
2 | CNS(=O)(=O)c1ccc(C)c(NC(=O)[C@@H](CC2CCCCC2)NC(=N)NC(=O)Cc2ccc(OC)c(Cl)c2)c1 | 295 µL/min/mg | 273 µL/min/mg
3 | CCN(CC)S(=O)(=O)c1ccc(C)c(NC(=O)[C@@H](CC2CCCCC2)NC(=N)NC(=O)Cc2ccc(OC)c(OC)c2)c1 | 221 µL/min/mg | 227 µL/min/mg
4 | CNS(=O)(=O)c1ccc(C)c(NC(=O)[C@@H](CC2CCCCC2)NC(=N)NC(=O)Cc2ccc(OC)c(C(F)(F)F)c2)c1 | 188 µL/min/mg | 215 µL/min/mg
5 | CNS(=O)(=O)c1ccc(C)c(NC(=O)[C@@H](CC(C)C)NC(=N)NC(=O)Cc2ccc(OC)c(OC)c2)c1 | 239 µL/min/mg | 188 µL/min/mg
6 | CNS(=O)(=O)c1ccc(C)c(NC(=O)[C@@H](CC2CCCCC2)NC(=N)NC(=O)Cc2ccc(Cl)c(Cl)c2)c1 | 336 µL/min/mg | 176 µL/min/mg
7 | CCC[C@@H](NC(=N)NC(=O)Cc1ccc(OC)c(OC)c1)C(=O)Nc1cc(S(N)(=O)=O)ccc1C | 89.3 µL/min/mg | 266 µL/min/mg
8 | COc1ccc(CC(=O)NC(=N)N[C@H](Cc2cccs2)C(=O)Nc2cc(S(N)(=O)=O)ccc2C)cc1OC | 264 µL/min/mg | 260 µL/min/mg
9 | COc1ccc(CCC(=O)NC(=N)N[C@H](CC2CCCCC2)C(=O)Nc2cc(S(=O)(=O)N(C)C)ccc2C)cc1OC | 169 µL/min/mg | 234 µL/min/mg
10 | COc1ccc(CC(=O)NC(=N)N[C@H](CC2CCCCC2)C(=O)Nc2cc(S(=O)(=O)NC(C)C)ccc2C)cc1OC | 277 µL/min/mg | 240 µL/min/mg
11 | COc1ccc(CC(=O)NC(=N)N[C@H](CC2CCCCC2)C(=O)Nc2cc(S(=O)(=O)NC3CC3)ccc2C)cc1OC | 179 µL/min/mg | 354 µL/min/mg
12 | COc1ccc(CC(=O)NC(=N)N[C@H](Cc2cc3ccccc3s2)C(=O)Nc2cc(S(N)(=O)=O)ccc2C)cc1OC | 251 µL/min/mg | 239 µL/min/mg
13 | COc1ccc(CC(=O)NC(=N)N[C@@H](C(=O)Nc2cc(S(N)(=O)=O)ccc2C)C2CC2)cc1OC | 40 µL/min/mg | 100 µL/min/mg
14 | COc1ccc(CC(=O)NC(=N)N[C@H](CC2CCCCC2)C(=O)Nc2cc(S(=O)(=O)N3CCOCC3)ccc2C)cc1OC | 212 µL/min/mg | 237 µL/min/mg
15 | COc1ccc(CC(=O)NC(=N)N[C@H](CC2CCCCC2)C(=O)Nc2cc(S(=O)(=O)N(C)C)ccc2C)cc1OC | 204 µL/min/mg | 226 µL/min/mg
16 | COc1ccc(CC(=O)NC(=N)N[C@H](CC2CCCCC2)C(=O)Nc2cc(S(=O)(=O)N(C)C)ccc2C)cc1F | 241 µL/min/mg | 241 µL/min/mg
17 | COc1ccc(CC(=O)NC(=N)N[C@H](CC(C)C)C(=O)Nc2cc(S(N)(=O)=O)ccc2C)cc1OC | 160 µL/min/mg | 102 µL/min/mg
18 | COc1ccc(CC(=O)NC(=N)N[C@@H](C(=O)Nc2cc(S(N)(=O)=O)ccc2C)C2CCCCC2)cc1OC | 225 µL/min/mg | 210 µL/min/mg
19 | COc1ccc(CC(=O)NC(=N)N[C@H](CC2CCCCC2)C(=O)Nc2cc(N(S(C)(=O)=O)S(C)(=O)=O)ccc2C)cc1OC | 186 µL/min/mg | 165 µL/min/mg
20 | COc1ccc(CC(=O)NC(=N)N[C@@H](C(=O)Nc2cc(S(N)(=O)=O)ccc2C)C(C)(C)C)cc1OC | 108 µL/min/mg | 211 µL/min/mg

Row | SMILES | microsomal CLint at 0.5 h, 1 µM [1] | microsomal CLint at 0.5 h, 1 µM [2]
21 | CNS(=O)(=O)c1ccc(C)c(NC(=O)[C@@H](CC2CCCCC2)NC(=N)NC(=O)Cc2ccc(OC)c(OC)c2)c1 | 177 µL/min/mg | 177 µL/min/mg
22 | COc1ccc(CC(=O)NC(=N)N[C@H](CC2CCCCC2)C(=O)Nc2cc(S(=O)(=O)NC3CCCCC3)ccc2C)cc1OC | 326 µL/min/mg | 232 µL/min/mg
23 | COc1ccc(CC(=O)NC(=N)N[C@H](CC2CC2)C(=O)Nc2cc(S(N)(=O)=O)ccc2C)cc1OC | 108 µL/min/mg | 229 µL/min/mg
24 | COc1ccc(CC(=O)NC(=N)N[C@H](CN2CCOCC2)C(=O)Nc2cc(S(N)(=O)=O)ccc2C)cc1OC | 31.8 µL/min/mg | 49.1 µL/min/mg
25 | CNS(=O)(=O)c1ccc(C)c(NC(=O)[C@@H](CC2CCCCC2)NC(=N)NC(=O)Cc2ccc(S(C)(=O)=O)cc2)c1 | 241 µL/min/mg | 208 µL/min/mg
26 | Cc1ccc(S(=O)(=O)N(C)C)cc1NC(=O)[C@@H](CC1CCCCC1)NC(=N)NC(=O)Cc1cccc(C#N)c1 | 287 µL/min/mg | 250 µL/min/mg
27 | Cc1ccc(S(=O)(=O)N(C)C)cc1NC(=O)[C@@H](CC1CCCCC1)NC(=N)NC(=O)Cc1ccc2ccccc2c1 | 169 µL/min/mg | 200 µL/min/mg
28 | CCOC[C@@H](NC(=N)NC(=O)Cc1ccc(OC)c(OC)c1)C(=O)Nc1cc(S(N)(=O)=O)ccc1C | 59.1 µL/min/mg | 86.8 µL/min/mg
29 | Cc1ccc(S(=O)(=O)N(C)C)cc1NC(=O)[C@@H](CC1CCCCC1)NC(=N)NC(=O)Cc1ccc(Cl)c(Cl)c1 | 248 µL/min/mg | 238 µL/min/mg
30 | Cc1ccc(S(=O)(=O)N(C)C)cc1NC(=O)[C@@H](CC1CCCCC1)NC(=N)NC(=O)C1CCCc2ccccc21 (stereo not given in full) | 237 µL/min/mg | 259 µL/min/mg
31 | CNS(=O)(=O)c1ccc(C)c(NC(=O)[C@@H](C)NC(=N)NC(=O)Cc2ccc(OC)c(OC)c2)c1 | 134 µL/min/mg | 220 µL/min/mg
32 | CNS(=O)(=O)c1ccc(C)c(NC(=O)[C@@H](CC2CCCCC2)NC(=N)NC(=O)Cc2cc(Cl)cc(OC)c2)c1 | 212 µL/min/mg | 212 µL/min/mg
33 | COc1ccc(CC(=O)NC(=N)N[C@H](CC2CCCCC2)C(=O)Nc2cc(S(=O)(=O)N(C(C)C)C(C)C)ccc2C)cc1OC | 259 µL/min/mg | 259 µL/min/mg
34 | Cc1ccc(S(=O)(=O)N(C)C)cc1NC(=O)[C@@H](CC1CCCCC1)NC(=N)NC(=O)Cc1ccc(C(F)(F)F)cc1 | 291 µL/min/mg | 282 µL/min/mg
35 | COc1ccc(CC(=O)NC(=N)N[C@H](CC2CCCCC2)C(=O)Nc2cc(S(=O)(=O)N3CCN(C)CC3)ccc2C)cc1OC | 271 µL/min/mg | 212 µL/min/mg
36 | CNS(=O)(=O)c1ccc(C)c(NC(=O)[C@@H](CC2CCCCC2)NC(=N)NC(=O)Cc2cc(C(F)(F)F)cc(C(F)(F)F)c2)c1 | 175 µL/min/mg | 187 µL/min/mg
37 | COc1ccc(CC(=O)NC(=N)N[C@@H](C(=O)Nc2cc(S(N)(=O)=O)ccc2C)C2=CCC=CC2)cc1OC | 138 µL/min/mg | 178 µL/min/mg
38 | CCCC[C@@H](NC(=N)NC(=O)Cc1ccc(OC)c(OC)c1)C(=O)Nc1cc(S(N)(=O)=O)ccc1C | 215 µL/min/mg | 231 µL/min/mg
39 | COc1ccc(CC(=O)NC(=N)N[C@H](Cn2cc(-c3ccccc3)nn2)C(=O)Nc2cc(S(N)(=O)=O)ccc2C)cc1OC | 340 µL/min/mg | 367 µL/min/mg
40 | COc1ccc(CC(=O)NC(=N)N[C@H](Cc2ccccc2)C(=O)Nc2cc(S(N)(=O)=O)ccc2C)cc1OC | 191 µL/min/mg | 193 µL/min/mg
